A short description of the data set: oral administration of norphenephrine and its salts to users: metabolic, appetite, mental and addiction effects. The format is in vivo, human.

A value given as a limit tells only on which side of the number the result lay.

In the case of `NCC(O)c1cccc(O)c1` (centres unmarked) [norphenephrine, Norphenephrine], the “time until the user experiences a vastly reduced appetite for food” value (after intake) was at most 30 min. Moreover, the “interaction with caffeine (metabolic enhancement)” value (co-administration of caffeine) is “synergy between caffeine and norphenephrine is observed”. Further, under “even at high dosages, compared with amphetamines”, the “addictive / habituating nature” value is given as “not addictive, or even habituating”. In addition, for the setting “in vivo”, the “adipose tissue loss versus lean body mass” value is reported as “specifically enhance the loss of adipose tissue while preserving lean body mass”; the “focus, acuity and psychological outlook” value was “sustained and noticeable effect”; the overall metabolic rate entry is “increase a user's overall metabolic rate”. For the same compound, under “muscle tissue apart from adipose tissue”, the insulin sensitivity entry is “specifically increase insulin sensitivity in muscle tissue”. Under “no changes to the user's current diet and exercise regimen”, the fat mass entry is “noticeable and quantifiable decrease in fat mass”.

The record behind these values is patent US20090099215A1, “Metabolic enhancing properties of norphenephrine and its salts” (priority 2007, published 2009).
